# Where two headings read alike, the source gives them in different places.
# Tests used:
# Aurora A = target: T1, Aurora A (Homo sapiens, UniProt O14965); assay: Inhibitory activity to Aurora A (FRET); format: biochemical; settings: for inhibition at 1 µM: read-out: Aurora A inhibition % (1 × 10^−6 mol/L)
# T1 construct: purchased
# T1 sequence (O14965 1-403): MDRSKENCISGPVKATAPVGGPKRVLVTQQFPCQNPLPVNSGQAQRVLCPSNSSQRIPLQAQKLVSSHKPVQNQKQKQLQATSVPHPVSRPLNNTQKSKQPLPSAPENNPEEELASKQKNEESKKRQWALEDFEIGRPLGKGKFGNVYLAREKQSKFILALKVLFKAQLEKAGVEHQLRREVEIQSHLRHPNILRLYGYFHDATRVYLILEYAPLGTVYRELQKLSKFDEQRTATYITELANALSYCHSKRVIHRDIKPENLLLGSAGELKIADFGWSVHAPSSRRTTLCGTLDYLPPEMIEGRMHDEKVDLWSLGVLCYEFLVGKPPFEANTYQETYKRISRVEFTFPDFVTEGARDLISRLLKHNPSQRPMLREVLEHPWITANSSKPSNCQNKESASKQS
# Protocol: The inhibitory activities of the synthesized compounds for Aurora A is determined by fluorescence resonance energy transfer (FRET) and were compared with the positive control drug so as to screen the compounds with better activities. Aurora A was purchased in the form of a kit or obtained through purification. Procedures: Aurora A is diluted to a suitable concentration with kinase diluent. The kinase reaction mixture contains Aurora A, peptide substrate, HEPES (pH7.5), BRIJ-35, MgCl2 and EDTA. Aurora A phospho-peptide substrate is used as the control of 100% phosphorylation and ATP-free as the control of 0% phosphorylation. After 1 h, the diluted Development Reagent A is added into the reaction system. Then the reaction is allowed to proceed for 1 h and then quenched with Stop Reagent. The excitation wavelength is 400 nm and the fluorescence intensity is detected at 445 nm (coumarin) and 520 nm (fluorescein). The inhibitions of the tested compounds are calculated according to the formula.
# Phytophthora infestans = format: in vivo; set-up: concentration or dose not given beside the values
# Cryptococcus neoformans = assay: Antifungal activity, modified broth microdilution; format: cell-based; settings: 48 hours at 35, approximately 50% reduction of growth; for MIC: Cryptococcus neoformans
# Protocol: (§1) The test microorganisms are maintained on Sabourahd Dextrose Agar slant at 4[…]. Singlet suspension of each microorganism is prepared by growing the yeast overnight at 27[…] on a rotating drum in yeast-nitrogen base broth (YNB) with amino acids (Difco, Detroit, Mich.), (pH 7.0) and 0.05 morpholine propanesulphonic acid (MOPS). […] The activity of the test compound is determined using a modified broth microdilution technique. […] Well 12 serves as a growth control. […] Inoculated plate is incubated for 48 hours at 35 °C. […] Minimal Cytolytic Concentration (MCC) is determined by subculturing all wells from the 96-well plate onto a Sabourahd Dextrose Agar (SDA) plate, incubating for 1-2 days at 35 °C, and then checking viability.
# [1] = test system: Candida albicans - ATCC 36082; assay: Antifungal activity, modified broth microdilution; format: cell-based; settings: 48 hours at 35, approximately 50% reduction of growth; for MIC: Candida albicans, ATCC36082
# Protocol: as §1
# Candida tropicalis = assay: Antifungal activity, modified broth microdilution; format: cell-based; settings: 48 hours at 35, approximately 50% reduction of growth; for MIC: Candida tropicalis
# Protocol: as §1
# Candida parapsilosis = assay: Antifungal activity, modified broth microdilution; format: cell-based; settings: 48 hours at 35, approximately 50% reduction of growth; for MIC: Lodderomyces parapsilosis
# Protocol: as §1
# CDK2/A = target: T2, CDK2/A (Homo sapiens, UniProt P24941); assay: Inhibitory activity to CDK2 (FRET); format: biochemical; settings: for inhibition at 1 µM: read-out: CDK2 inhibition % (1 × 10^−6 mol/L)
# T2 construct: purchased
# Protocol: CDK2/A was purchased in the form of a kit or obtained through purification.
# Procedures: CDK2/A is diluted to a suitable concentration with kinase diluent. The kinase reaction mixture contains CDK2/A, peptide substrate, HEPES (pH7.5), BRIJ-35, MgCl2 and EDTA. CDK2 phospho-peptide substrate is used as the control of 100% phosphorylation and ATP-free as the control of 0% phosphorylation. After 1 h, the diluted Development Reagent A is added into the reaction system. Then the reaction is allowed to proceed for 1 h and then quenched with Stop Reagent. […] The inhibitions of the tested compounds are calculated according to the formula.
# lung cancer cell H1299 = assay: Anti-tumor activity in vitro, MTT method; format: cell-based; settings: MTT, 48 h, read-out: H1299 (IC50/μM)
# [2] = test system: colon cancer cell line HCT116; assay: Anti-tumor activity in vitro, MTT method; format: cell-based; settings: MTT, 48 h, first cell table, read-out: HCT-116 (IC50/μM)
# [3] = test system: liver cancer cell line 7721; assay: Anti-tumor activity in vitro, MTT method; format: cell-based; settings: MTT, 48 h; read-out: 7721 (IC50/μM)
compound,measurement,setting,value
"CN1CCN(Cc2ccc(NC(=O)c3n[nH]cc3Nc3nccc4sccc34)cc2)CC1 [Compound I-25, 4-(4-thieno[3,2-c]pyridylamino)-N-(4-((4-methyl-1-piperazinyl)methyl)phenyl)-1H-3-pyrazolecarboxamide]",melting point,,268 to 270 °C
same,inhibition at 1 µM,Aurora A,59.7%
same,Severity of tomato leaf blight,Phytophthora infestans; 0.0001 (unit not given),++ (15-40% blight)
same,Severity of tomato leaf blight,Phytophthora infestans; 0.001 (unit not given),++ (15-40% blight)
same,Severity of tomato leaf blight,Phytophthora infestans; 0.01 (unit not given),+ (0-15% blight)
same,Severity of tomato leaf blight,Phytophthora infestans; 0.1 (unit not given),−
same,MIC,Cryptococcus neoformans,2.83 µg/mL
same,MIC,[1],3.38 µg/mL
same,MIC,Candida tropicalis,1.08 µg/mL
same,MIC,Candida parapsilosis,0.96 µg/mL
same,inhibition at 1 µM,CDK2/A,59.5%
"CN1CCN(Cc2ccc(NC(=O)c3n[nH]cc3Nc3ncnc4cc[nH]c34)cc2)CC1 [Compound I-17, 4-(4-(5H-pyrrolo[3,2-d]pyrimidinyl)amino)-N-(4-((4-methyl-1-piperazinyl)methyl)phenyl)-1H-3-pyrazolecarboxamide]",Aurora A inhibition % (1 × 10^−6 mol/L),Aurora A,62.17%
same,Severity of tomato leaf blight,Phytophthora infestans; 0.0001 (unit not given),+++ (40-60% blight)
same,Severity of tomato leaf blight,Phytophthora infestans; 0.001 (unit not given),++ (15-40% blight)
same,Severity of tomato leaf blight,Phytophthora infestans; 0.01 (unit not given),+ (0-15% blight)
same,Severity of tomato leaf blight,Phytophthora infestans; 0.1 (unit not given),−
same,Cryptococcus neoformans MIC,Cryptococcus neoformans,7.99 µg/mL
same,Candida albicans - ATCC 36082 MIC,[1],9.49 µg/mL
same,Candida tropicalis MIC,Candida tropicalis,4.70 µg/mL
same,Candida parapsilosis MIC,Candida parapsilosis,2.76 µg/mL
same,CDK2 inhibition % (1 × 10^−6 mol/L),CDK2/A,65.96%
"O=C(Nc1ccc(CN2CCOCC2)cc1)c1n[nH]cc1Nc1ccnc2ccoc12 [Compound I-40, 4-(7-furo[3,2-b]pyridylamino)-N-(4-((4-morpholinyl)methyl)phenyl)-1H-3-pyrazolecarboxamide]",melting point,,275 to 278 °C
same,inhibition at 1 µM,Aurora A,40.7%
same,inhibition at 1 µM,CDK2/A,20.2%
"CN1CCN(Cc2ccc(NC(=O)c3n[nH]cc3Nc3nccc4ccoc34)cc2)CC1 [Compound I-37, 4-(7-furo[2,3-c]pyridylamino)-N-(4-((4-methyl-1-piperazinyl)methyl)phenyl)-1H-3-pyrazolecarboxamide]",melting point,,258 to 261 °C
same,inhibition at 1 µM,Aurora A,59.6%
same,inhibition at 1 µM,CDK2/A,72.2%
"CN1CCN(Cc2ccc(NC(=O)c3n[nH]cc3Nc3ncnc4ccsc34)cc2)CC1 [Compound I-9, 4-(4-thieno[3,2-d]pyrimidinylamino)-N-(4-((4-methyl-1-piperazinyl)methyl)phenyl)-1H-3-pyrazole carboxamide]",melting point,,> 280 °C
same,inhibition at 1 µM,Aurora A,67.6%
same,Severity of tomato leaf blight,Phytophthora infestans; 0.0001 (unit not given),++ (15-40% blight)
same,Severity of tomato leaf blight,Phytophthora infestans; 0.001 (unit not given),++ (15-40% blight)
same,Severity of tomato leaf blight,Phytophthora infestans; 0.01 (unit not given),−
same,Severity of tomato leaf blight,Phytophthora infestans; 0.1 (unit not given),−
same,MIC,Cryptococcus neoformans,15.6 µg/mL
same,MIC,[1],12.7 µg/mL
same,MIC,Candida tropicalis,10.7 µg/mL
same,MIC,Candida parapsilosis,8.7 µg/mL
same,inhibition at 1 µM,CDK2/A,65%
"O=C(Nc1ccc(CN2CCOCC2)cc1)c1n[nH]cc1Nc1nccc2occc12 [Compound I-34, 4-(4-furo[3,2-c]pyridylamino)-N-(4-((4-morpholinyl)methyl)phenyl)-1H-3-pyrazolecarboxamide]",melting point,,268 to 271 °C
same,inhibition at 1 µM,Aurora A,50.5%
same,inhibition at 1 µM,CDK2/A,65.8%
"Cc1c[nH]c2ncnc(Nc3c[nH]nc3C(=O)Nc3ccc(CN4CCOCC4)cc3)c12 [Compound I-16, 4-(4-(5-methyl-7H-pyrrolo[2,3-d]pyrimidinyl)amino)-N-(4-((4-morpholinyl)methyl)phenyl)-1H-3-pyrazolecarboxamide]",Aurora A inhibition % (1 × 10^−6 mol/L),Aurora A,56.18%
same,IC50,lung cancer cell H1299,89 µM
same,IC50,[2],32.3 µM
same,IC50,[3],54.2 µM
same,CDK2 inhibition % (1 × 10^−6 mol/L),CDK2/A,50.49%
"O=C(Nc1c[nH]nc1-c1nc2ccc(CN3CCOCC3)cc2[nH]1)NC1CC1 [AT-9283, reference compound]",inhibition at 1 µM,Aurora A,77.4%
same,IC50,"lung cancer cell H1299; Homo sapiens, NCI-H1299",10.8 µM
same,IC50,"[2]; Homo sapiens, HCT-116",21.2 µM
same,IC50,[3],61.2 µM
same,inhibition at 1 µM,CDK2/A,39.7%
"Cc1cc2ncnc(Nc3c[nH]nc3C(=O)Nc3ccc(CN4CCN(C)CC4)cc3)c2[nH]1 [Compound I-19, 4-(4-(6-methyl-5H-pyrrolo[3,2-d]pyrimidinyl)amino)-N-(4-((4-methyl-1-piperazinyl)methyl)phenyl)-1H-3-pyrazolecarboxamide]",Aurora A inhibition % (1 × 10^−6 mol/L),Aurora A,70.28%
same,Severity of tomato leaf blight,Phytophthora infestans; 0.0001 (unit not given),++++ (>60% blight)
same,Severity of tomato leaf blight,Phytophthora infestans; 0.001 (unit not given),++ (15-40% blight)
same,Severity of tomato leaf blight,Phytophthora infestans; 0.01 (unit not given),+ (0-15% blight)
same,Severity of tomato leaf blight,Phytophthora infestans; 0.1 (unit not given),−
same,Cryptococcus neoformans MIC,Cryptococcus neoformans,12.86 µg/mL
same,Candida albicans - ATCC 36082 MIC,[1],11.80 µg/mL
same,Candida tropicalis MIC,Candida tropicalis,8.58 µg/mL
same,Candida parapsilosis MIC,Candida parapsilosis,6.45 µg/mL
same,CDK2 inhibition % (1 × 10^−6 mol/L),CDK2/A,65.01%
"O=C(Nc1ccc(CN2CCOCC2)cc1)c1n[nH]cc1Nc1ccnc2occc12 [Compound I-42, 4-(4-furo[2,3-b]pyridylamino)-N-(4-((4-morpholinyl)methyl)phenyl)-1H-3-pyrazolecarboxamide]",melting point,,269 to 271 °C
same,inhibition at 1 µM,Aurora A,51.8%
same,inhibition at 1 µM,CDK2/A,54.2%
"O=C(Nc1ccc(CN2CCOCC2)cc1)c1n[nH]cc1Nc1ncnc2ccoc12 [Compound I-24, 4-(4-furo[3,2-d]pyrimidinylamino)-N-(4-((4-morpholinyl)methyl)phenyl)-1H-3-pyrazolecarboxamide]",melting point,,271 to 273 °C
same,inhibition at 1 µM,Aurora A,49.2%
same,inhibition at 1 µM,CDK2/A,67.1%
"Cc1c[nH]c2ncnc(Nc3c[nH]nc3C(=O)Nc3ccc(CN4CCN(C)CC4)cc3)c12 [Compound I-15, 4-(4-(5-methyl-7H-pyrrolo[2,3-d]pyrimidinyl)amino)-N-(4-((4-methyl-1-piperazinyl)methyl)phenyl)-1H-3-pyrazolecarboxamide]",Aurora A inhibition % (1 × 10^−6 mol/L),Aurora A,57.43%
same,Severity of tomato leaf blight,Phytophthora infestans; 0.0001 (unit not given),++ (15-40% blight)
same,Severity of tomato leaf blight,Phytophthora infestans; 0.001 (unit not given),++ (15-40% blight)
same,Severity of tomato leaf blight,Phytophthora infestans; 0.01 (unit not given),+ (0-15% blight)
same,Severity of tomato leaf blight,Phytophthora infestans; 0.1 (unit not given),−
same,Cryptococcus neoformans MIC,Cryptococcus neoformans,9.40 µg/mL
same,Candida albicans - ATCC 36082 MIC,[1],6.77 µg/mL
same,Candida tropicalis MIC,Candida tropicalis,5.00 µg/mL
same,Candida parapsilosis MIC,Candida parapsilosis,5.78 µg/mL
same,CDK2 inhibition % (1 × 10^−6 mol/L),CDK2/A,73.16%
"CN1CCN(Cc2ccc(NC(=O)c3n[nH]cc3Nc3ncnc4ccoc34)cc2)CC1 [Compound I-23, 4-(4-furo[3,2-d]pyrimidinylamino)-N-(4-((4-methyl-1-piperazinyl)methyl)phenyl)-1H-3-pyrazolecarboxamide]",melting point,,277 to 279 °C
same,inhibition at 1 µM,Aurora A,59.7%
same,Severity of tomato leaf blight,Phytophthora infestans; 0.0001 (unit not given),+++ (40-60% blight)
same,Severity of tomato leaf blight,Phytophthora infestans; 0.001 (unit not given),++ (15-40% blight)
same,Severity of tomato leaf blight,Phytophthora infestans; 0.01 (unit not given),−
same,Severity of tomato leaf blight,Phytophthora infestans; 0.1 (unit not given),−
same,MIC,Cryptococcus neoformans,5.82 µg/mL
same,MIC,[1],2.92 µg/mL
same,MIC,Candida tropicalis,3.24 µg/mL
same,MIC,Candida parapsilosis,4.32 µg/mL
same,inhibition at 1 µM,CDK2/A,60.6%

# Source: patent US9550792B2, “Polycyclic substituted pyrazole kinase activity inhibitors and use thereof” (priority 2013, dated 2017)
